In PubChem BioAssay (NCI):
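Cells were grown in 96-well plates and exposed to each compound for 48 hours at five concentrations; endpoints were interpolated linearly between bracketing concentrations, or set to the highest concentration if not reached. At the TGI there is no net growth.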

System: UACC-62 melanoma
Assay: NCI anticancer screen, dose series, 48 h

| Compound | TGI [µM] |
| --- | --- |
| CC1CC(=O)Nc2nc3ccccc3n21 (centres undefined) | > 100 |
| CC(C)(C)[Si](C)(C)OCC1OC(n2cnc3c(N)ncnc32)C(O[Si](C)(C)C(C)(C)C)C1O[Si](C)(C)C(C)(C)C (centres undefined) | 51.6 |

System: SN12C renal
Assay: NCI anticancer screen, dose series, 48 h

| Compound | TGI [µM] |
| --- | --- |
| COc1cc(/C=C\C(=O)O)ccc1OCc1ccccc1 | > 100 |
| C=C1CC(C)(c2ccc(Nc3nc4ccccc4c4occc34)cc2)OC1=O (centres undefined) | 4.91 |
| CC(C)(C)[Si](C)(C)OCC1OC(n2cnc3c(N)ncnc32)C(O[Si](C)(C)C(C)(C)C)C1O[Si](C)(C)C(C)(C)C (centres undefined) | 34.9 |

System: U251 CNS
Assay: NCI anticancer screen, dose series, 48 h

| Compound | TGI [µM] |
| --- | --- |
| COc1cc(/C=C\C(=O)O)ccc1OCc1ccccc1 | > 100 |
| C=C1CC(C)(c2ccc(Nc3nc4ccccc4c4occc34)cc2)OC1=O (centres undefined) | 38.9 |
| CC1CC(=O)Nc2nc3ccccc3n21 (centres undefined) | > 100 |

System: SF-268 CNS
Assay: NCI anticancer screen, dose series, 48 h

| Compound | TGI [µM] |
| --- | --- |
| COc1cc(/C=C\C(=O)O)ccc1OCc1ccccc1 | > 100 |
| C=C1CC(C)(c2ccc(Nc3nc4ccccc4c4occc34)cc2)OC1=O (centres undefined) | 15.2 |
| CC1CC(=O)Nc2nc3ccccc3n21 (centres undefined) | > 100 |
| CC(C)(C)[Si](C)(C)OCC1OC(n2cnc3c(N)ncnc32)C(O[Si](C)(C)C(C)(C)C)C1O[Si](C)(C)C(C)(C)C (centres undefined) | 56.5 |

System: DU-145 prostate
Assay: NCI anticancer screen, dose series, 48 h

| Compound | TGI [µM] |
| --- | --- |
| COc1cc(/C=C\C(=O)O)ccc1OCc1ccccc1 | > 100 |
| C=C1CC(C)(c2ccc(Nc3nc4ccccc4c4occc34)cc2)OC1=O (centres undefined) | 28.4 |
| CC(C)(C)[Si](C)(C)OCC1OC(n2cnc3c(N)ncnc32)C(O[Si](C)(C)C(C)(C)C)C1O[Si](C)(C)C(C)(C)C (centres undefined) | > 100 |

System: A549 NSCLC
Assay: NCI anticancer screen, dose series, 48 h

| Compound | TGI [µM] |
| --- | --- |
| COc1cc(/C=C\C(=O)O)ccc1OCc1ccccc1 | > 100 |
| C=C1CC(C)(c2ccc(Nc3nc4ccccc4c4occc34)cc2)OC1=O (centres undefined) | 23.7 |
| CC1CC(=O)Nc2nc3ccccc3n21 (centres undefined) | > 100 |
| CC(C)(C)[Si](C)(C)OCC1OC(n2cnc3c(N)ncnc32)C(O[Si](C)(C)C(C)(C)C)C1O[Si](C)(C)C(C)(C)C (centres undefined) | 48.5 |

System: A498 renal
Assay: NCI anticancer screen, dose series, 48 h

| Compound | TGI [µM] |
| --- | --- |
| COc1cc(/C=C\C(=O)O)ccc1OCc1ccccc1 | > 100 |
| C=C1CC(C)(c2ccc(Nc3nc4ccccc4c4occc34)cc2)OC1=O (centres undefined) | 33.8 |
| CC1CC(=O)Nc2nc3ccccc3n21 (centres undefined) | > 100 |

System: MDA-MB-231 breast
Assay: NCI anticancer screen, dose series, 48 h

| Compound | TGI [µM] |
| --- | --- |
| COc1cc(/C=C\C(=O)O)ccc1OCc1ccccc1 | > 100 |
| C=C1CC(C)(c2ccc(Nc3nc4ccccc4c4occc34)cc2)OC1=O (centres undefined) | 6.35 |
| CC1CC(=O)Nc2nc3ccccc3n21 (centres undefined) | > 100 |
| CC(C)(C)[Si](C)(C)OCC1OC(n2cnc3c(N)ncnc32)C(O[Si](C)(C)C(C)(C)C)C1O[Si](C)(C)C(C)(C)C (centres undefined) | 54.1 |

System: OVCAR-4 ovarian
Assay: NCI anticancer screen, dose series, 48 h

| Compound | TGI [µM] |
| --- | --- |
| C=C1CC(C)(c2ccc(Nc3nc4ccccc4c4occc34)cc2)OC1=O (centres undefined) | 7.73 |
| CC1CC(=O)Nc2nc3ccccc3n21 (centres undefined) | > 100 |

System: UACC-257 melanoma
Assay: NCI anticancer screen, dose series, 48 h

| Compound | TGI [µM] |
| --- | --- |
| COc1cc(/C=C\C(=O)O)ccc1OCc1ccccc1 | > 100 |
| C=C1CC(C)(c2ccc(Nc3nc4ccccc4c4occc34)cc2)OC1=O (centres undefined) | 0.164 |
| CC1CC(=O)Nc2nc3ccccc3n21 (centres undefined) | > 100 |
| CC(C)(C)[Si](C)(C)OCC1OC(n2cnc3c(N)ncnc32)C(O[Si](C)(C)C(C)(C)C)C1O[Si](C)(C)C(C)(C)C (centres undefined) | > 100 |

System: SNB-75 CNS
Assay: NCI anticancer screen, dose series, 48 h

| Compound | TGI [µM] |
| --- | --- |
| C=C1CC(C)(c2ccc(Nc3nc4ccccc4c4occc34)cc2)OC1=O (centres undefined) | 6.56 |
| CC(C)(C)[Si](C)(C)OCC1OC(n2cnc3c(N)ncnc32)C(O[Si](C)(C)C(C)(C)C)C1O[Si](C)(C)C(C)(C)C (centres undefined) | 27.6 |

System: T-47D breast
Assay: NCI anticancer screen, dose series, 48 h

| Compound | TGI [µM] |
| --- | --- |
| COc1cc(/C=C\C(=O)O)ccc1OCc1ccccc1 | > 100 |
| C=C1CC(C)(c2ccc(Nc3nc4ccccc4c4occc34)cc2)OC1=O (centres undefined) | 6.85 |
| CC1CC(=O)Nc2nc3ccccc3n21 (centres undefined) | > 100 |
| CC(C)(C)[Si](C)(C)OCC1OC(n2cnc3c(N)ncnc32)C(O[Si](C)(C)C(C)(C)C)C1O[Si](C)(C)C(C)(C)C (centres undefined) | 46.4 |

System: MDA-N
Assay: NCI anticancer screen, dose series, 48 h

| Compound | TGI [µM] |
| --- | --- |
| COc1cc(/C=C\C(=O)O)ccc1OCc1ccccc1 | > 100 |
| C=C1CC(C)(c2ccc(Nc3nc4ccccc4c4occc34)cc2)OC1=O (centres undefined) | 12.7 |
| CC1CC(=O)Nc2nc3ccccc3n21 (centres undefined) | > 100 |
| CC(C)(C)[Si](C)(C)OCC1OC(n2cnc3c(N)ncnc32)C(O[Si](C)(C)C(C)(C)C)C1O[Si](C)(C)C(C)(C)C (centres undefined) | > 100 |

System: HL-60(TB) leukemia
Assay: NCI anticancer screen, dose series, 48 h

| Compound | TGI [µM] |
| --- | --- |
| COc1cc(/C=C\C(=O)O)ccc1OCc1ccccc1 | > 100 |
| C=C1CC(C)(c2ccc(Nc3nc4ccccc4c4occc34)cc2)OC1=O (centres undefined) | 6.34 |
| CC1CC(=O)Nc2nc3ccccc3n21 (centres undefined) | > 100 |

System: OVCAR-8 ovarian
Assay: NCI anticancer screen, dose series, 48 h

| Compound | TGI [µM] |
| --- | --- |
| COc1cc(/C=C\C(=O)O)ccc1OCc1ccccc1 | > 100 |
| C=C1CC(C)(c2ccc(Nc3nc4ccccc4c4occc34)cc2)OC1=O (centres undefined) | 11.4 |
| CC1CC(=O)Nc2nc3ccccc3n21 (centres undefined) | > 100 |
| CC(C)(C)[Si](C)(C)OCC1OC(n2cnc3c(N)ncnc32)C(O[Si](C)(C)C(C)(C)C)C1O[Si](C)(C)C(C)(C)C (centres undefined) | 42 |
